Tests used:
Mus musculus [1] = experiment: Antinociceptive activity in ICR mouse model of chronic constriction injury-induced neuropathic pain assessed as inhibition of mechanical allodynia at 10 umol/kg, ip administered 7 days post-surgery and measured after 5 hrs post-dose by Von Frey assay relative to control; assay type: functional
Mus musculus [2] = experiment: Antinociceptive activity in ICR mouse model of chronic constriction injury-induced neuropathic pain assessed as inhibition of mechanical allodynia at 10 umol/kg, ip administered 7 days post-surgery and measured after 2 hrs post-dose by Von Frey assay relative to control; assay type: functional
Mus musculus [3] = experiment: Effect on nociception on contralateral paw in ICR mouse model of chronic constriction injury-induced neuropathic pain assessed as paw withdrawal threshold at 10 umol/kg, ip administered 7 days post-surgery and measured after 30 mins to 3 hrs post-dose by Von Frey assay; assay type: organism-based; details: in vivo
Mus musculus [4] = experiment: Antinociceptive activity in ICR mouse model of chronic constriction injury-induced neuropathic pain assessed as inhibition of mechanical allodynia at 10 umol/kg, ip administered 7 days post-surgery and measured after 1 hr post-dose by Von Frey assay relative to control; assay type: functional
Mus musculus [5] = experiment: Antinociceptive activity in ICR mouse model of chronic constriction injury-induced neuropathic pain assessed as inhibition of mechanical allodynia at 10 umol/kg, ip administered 7 days post-surgery and measured after 3 hrs post-dose by Von Frey assay relative to control; assay type: functional
Mus musculus [6] = experiment: Protection ratio of antinociceptive activity in ICR mouse model of chronic constriction injury-induced neuropathic pain assessed as inhibition of mechanical allodynia at 10 umol/kg, ip administered 7 days post-surgery and measured after 3 hrs to 1 hrs post-dose by Von Frey assay; assay type: functional
Mus musculus [7] = experiment: Antinociceptive activity in ICR mouse model of chronic constriction injury-induced neuropathic pain assessed as inhibition of mechanical allodynia at 10 umol/kg, ip administered 7 days post-surgery and measured after 0.5 hrs post-dose by Von Frey assay relative to control; assay type: functional
Mus musculus [8] = experiment: Antinociceptive activity in ICR mouse model of chronic constriction injury-induced neuropathic pain assessed as inhibition of mechanical allodynia at 1 umol/kg, ip administered 7 days post-surgery and measured after 2 hrs post-dose by Von Frey assay relative to control; assay type: functional
Mus musculus [9] = experiment: Antinociceptive activity in ICR mouse model of chronic constriction injury-induced neuropathic pain assessed as inhibition of mechanical allodynia at 3 umol/kg, ip administered 7 days post-surgery and measured after 1 hr post-dose by Von Frey assay relative to control; assay type: functional
Mus musculus [10] = experiment: Antinociceptive activity in ip dosed ICR mouse model of chronic constriction injury-induced neuropathic pain assessed as inhibition of mechanical allodynia administered 7 days post-surgery and measured after 1 hr post-dose by Von Frey assay; assay type: functional
Mus musculus [11] = experiment: Antinociceptive activity in ICR mouse model of chronic constriction injury-induced neuropathic pain assessed as inhibition of mechanical allodynia at 1 umol/kg, ip administered 7 days post-surgery and measured after 5 hrs post-dose by Von Frey assay relative to control; assay type: functional
Mus musculus [12] = experiment: Antinociceptive activity in ICR mouse model of chronic constriction injury-induced neuropathic pain assessed as inhibition of mechanical allodynia at 1 umol/kg, ip administered 7 days post-surgery and measured after 0.5 hrs post-dose by Von Frey assay relative to control; assay type: functional
Mus musculus [13] = experiment: Antinociceptive activity in ICR mouse model of chronic constriction injury-induced neuropathic pain assessed as inhibition of mechanical allodynia at 3 umol/kg, ip administered 7 days post-surgery and measured after 5 hrs post-dose by Von Frey assay relative to control; assay type: functional
Mus musculus [14] = experiment: Antinociceptive activity in ICR mouse model of chronic constriction injury-induced neuropathic pain assessed as inhibition of mechanical allodynia at 1 umol/kg, ip administered 7 days post-surgery and measured after 1 hr post-dose by Von Frey assay relative to control; assay type: functional
Mus musculus [15] = experiment: Antinociceptive activity in ICR mouse model of chronic constriction injury-induced neuropathic pain assessed as inhibition of mechanical allodynia at 3 umol/kg, ip administered 7 days post-surgery and measured after 0.5 hrs post-dose by Von Frey assay relative to control; assay type: functional
Mus musculus [16] = experiment: Antinociceptive activity in ICR mouse model of chronic constriction injury-induced neuropathic pain assessed as inhibition of mechanical allodynia at 1 umol/kg, ip administered 7 days post-surgery and measured after 3 hrs post-dose by Von Frey assay relative to control; assay type: functional
Mus musculus [17] = experiment: Antinociceptive activity in ICR mouse model of chronic constriction injury-induced neuropathic pain assessed as inhibition of mechanical allodynia at 3 umol/kg, ip administered 7 days post-surgery and measured after 3 hrs post-dose by Von Frey assay relative to control; assay type: functional
Mus musculus [18] = experiment: Antinociceptive activity in ICR mouse model of chronic constriction injury-induced neuropathic pain assessed as inhibition of mechanical allodynia at 3 umol/kg, ip administered 7 days post-surgery and measured after 2 hrs post-dose by Von Frey assay relative to control; assay type: functional
Cannabinoid receptor 1 = Cannabinoid receptor 1 (Rattus norvegicus, UniProt P20272); experiment: Antagonist activity at rat brain CB1 receptor expressed in HEK-Flp-In cells in presence of [3H]CP55940 measured after overnight incubation by Bright-Glo luminescence assay; assay type: cell-based
Cannabinoid receptor 2 = Cannabinoid receptor 2 (Rattus norvegicus, UniProt Q9QZN9); experiment: Antagonist activity at rat brain CB2 receptor expressed in HEK-Flp-In cells in presence of [3H]CP55940 measured after overnight incubation by Bright-Glo luminescence assay; assay type: cell-based
Chain of Cannabinoid receptor 2 (Q9QZN9 whole entry, looked up): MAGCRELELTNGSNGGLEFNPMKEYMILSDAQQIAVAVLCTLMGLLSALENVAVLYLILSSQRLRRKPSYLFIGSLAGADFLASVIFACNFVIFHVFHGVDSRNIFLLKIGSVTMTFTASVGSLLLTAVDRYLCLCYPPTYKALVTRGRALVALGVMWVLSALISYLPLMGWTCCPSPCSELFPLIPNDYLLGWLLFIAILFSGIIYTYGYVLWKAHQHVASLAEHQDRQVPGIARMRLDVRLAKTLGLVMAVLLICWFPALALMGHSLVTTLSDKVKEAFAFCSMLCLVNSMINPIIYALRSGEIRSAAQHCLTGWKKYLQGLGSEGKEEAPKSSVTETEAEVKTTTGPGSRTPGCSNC

Chain of Cannabinoid receptor 1 (P20272 whole entry): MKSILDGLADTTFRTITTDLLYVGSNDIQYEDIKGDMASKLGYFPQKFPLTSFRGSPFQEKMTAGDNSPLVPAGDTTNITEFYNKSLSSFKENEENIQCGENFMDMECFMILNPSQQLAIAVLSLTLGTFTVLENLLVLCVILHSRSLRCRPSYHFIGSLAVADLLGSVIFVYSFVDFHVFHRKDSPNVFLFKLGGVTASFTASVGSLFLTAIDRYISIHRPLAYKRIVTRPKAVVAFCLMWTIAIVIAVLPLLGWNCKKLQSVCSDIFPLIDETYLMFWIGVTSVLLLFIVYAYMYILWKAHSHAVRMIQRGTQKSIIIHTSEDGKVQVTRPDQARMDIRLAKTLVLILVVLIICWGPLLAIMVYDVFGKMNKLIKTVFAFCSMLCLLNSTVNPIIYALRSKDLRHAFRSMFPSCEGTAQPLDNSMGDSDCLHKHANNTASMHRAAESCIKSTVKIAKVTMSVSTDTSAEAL

| IC50 (Cannabinoid receptor 1) | IC50 (Cannabinoid receptor 2) | Structure (SMILES) | inhibition in vivo at 10 µmol/kg (Mus musculus [1]) | inhibition in vivo at 10 µmol/kg (Mus musculus [2]) | Activity (Mus musculus [3]) | inhibition in vivo at 10 µmol/kg (Mus musculus [4]) | inhibition in vivo at 10 µmol/kg (Mus musculus [5]) | Ratio (Mus musculus [6]) | inhibition in vivo at 10 µmol/kg (Mus musculus [7]) | inhibition in vivo at 1 µmol/kg (Mus musculus [8]) | inhibition in vivo at 3 µmol/kg (Mus musculus [9]) | ED50 (Mus musculus [10]) | inhibition in vivo at 1 µmol/kg (Mus musculus [11]) | inhibition in vivo at 1 µmol/kg (Mus musculus [12]) | inhibition in vivo at 3 µmol/kg (Mus musculus [13]) | inhibition in vivo at 1 µmol/kg (Mus musculus [14]) | inhibition in vivo at 3 µmol/kg (Mus musculus [15]) | inhibition in vivo at 1 µmol/kg (Mus musculus [16]) | inhibition in vivo at 3 µmol/kg (Mus musculus [17]) | inhibition in vivo at 3 µmol/kg (Mus musculus [18]) |
| --- | --- | --- | --- | --- | --- | --- | --- | --- | --- | --- | --- | --- | --- | --- | --- | --- | --- | --- | --- | --- |
| – | – | O=C(O)c1cc(O)c2ccc(-c3ccc(C(F)(F)F)cc3)cc2c1 | 0% | 59.8% | Non-Toxic | 64.2% | 35.2% | 0.34 - 0.63 | 23.4% | – | – | – | – | – | – | – | – | – | – | – |
| – | – | C#CCCCCN1CCC(c2ccc(-c3cc(C(=O)O)cc4cc(-c5ccc(C(F)(F)F)cc5)ccc34)cc2)CC1 | 0% | 42.7% | – | 75.9% | 9.6% | 0.13 | 52.4% | – | – | – | – | – | – | – | – | – | – | – |
| – | – | NCCCNC(=O)c1ccc(-c2cc(C(=O)O)cc(-n3cc(-c4ccc(C(F)(F)F)cc4)nn3)c2)s1 | 10% | 74% | – | 91.5% | 30.9% | 0.34 - 0.63 | 81% | – | – | – | – | – | – | – | – | – | – | – |
| – | – | O=C(O)c1cc(-c2ccc(C3CCNCC3)cc2)cc(-n2cc(-c3ccc(C(F)(F)F)cc3)nn2)c1 | 12.7% | 57.2% | – | 67.4% | 31.9% | – | 52.4% | 18.7% | 53.3% | 3.5 µmol/kg | 8.7% | 8.7% | 0% | 18.7% | 44.6% | 8.7% | 35.6% | 44.6% |
| – | – | O=C(O)c1cc(-c2ccc(C3CCNCC3)cc2)cc(-c2cn(-c3ccc(C(F)(F)F)cc3)nn2)c1 | 6.7% | 71.4% | Non-Toxic | 86.8% | 55.1% | 0.34 - 0.63 | 70.7% | – | – | – | – | – | – | – | – | – | – | – |
| – | – | CC(=O)N1CCC(c2ccc(-c3cc(C(=O)O)cc4cc(-c5ccc(C(F)(F)F)cc5)ccc34)cc2)CC1 | – | – | Non-Toxic | – | – | – | – | – | – | – | – | – | – | – | – | – | – | – |
| – | – | CCC(=O)N1CCC(c2ccc(-c3cc(C(=O)O)cc4cc(-c5ccc(C(F)(F)F)cc5)ccc34)cc2)CC1 | 5.6% | 71.6% | – | 77.2% | 55.7% | 0.72 - 0.92 | 32.9% | – | – | – | – | – | – | – | – | – | – | – |
| > 50 µM | > 50 µM | O=C(O)c1cc(-c2ccc(C3CCNCC3)cc2)c2ccc(-c3ccc(C(F)(F)F)cc3)cc2c1 [PPTN] | 21.3% | 96.4% | Non-Toxic | 100% | 78.6% | – | 87.9% | 10% | 79.3% | 1.6 µmol/kg | 4.7% | 10% | 8.7% | 19.9% | 62.9% | 4.7% | 64.7% | 76.9% |

From ChEMBL document CHEMBL4616709, “P2Y14 Receptor Antagonists Reverse Chronic Neuropathic Pain in a Mouse Model” (ACS Med Chem Lett, 2020)
